# According to ChEMBL document CHEMBL4130577, “Platanic acid: A new scaffold for the synthesis of cytotoxic agents” (Eur J Med Chem, 2018):
# Tested on: A2780
# Test: Cytotoxicity against human A2780 cells after 96 hrs by SRB assay
# Assay type: functional, cell-based
# Conditions: A2780, 96 h
row,SMILES,EC50 [µM]
1,COC(=O)[C@]12CC[C@@H](C(C)=O)[C@@H]1[C@H]1CC[C@@H]3[C@@]4(C)CC[C@H](O)C(C)(C)[C@@H]4CC[C@@]3(C)[C@]1(C)CC2,> 30
2,CC(=O)[C@@H]1CC[C@]2(C(=O)OCc3ccccc3)CC[C@]3(C)[C@H](CC[C@@H]4[C@@]5(C)CC[C@H](O)C(C)(C)[C@@H]5CC[C@]43C)[C@@H]12,15.8
3,COC(=O)[C@]12CC[C@@H](NC(C)=O)[C@@H]1[C@H]1CC[C@@H]3[C@@]4(C)CC[C@H](OC(C)=O)C(C)(C)[C@@H]4CC[C@@]3(C)[C@]1(C)CC2,22.1
4,COC(=O)[C@]12CC[C@@H](NC(C)=O)[C@@H]1[C@H]1CC[C@@H]3[C@@]4(C)CC[C@H](O)C(C)(C)[C@@H]4CC[C@@]3(C)[C@]1(C)CC2,> 30
5,COC(=O)[C@]12CC[C@@H](C(C)=O)[C@@H]1[C@H]1CC[C@@H]3[C@@]4(C)CC[C@H](OC(C)=O)C(C)(C)[C@@H]4CC[C@@]3(C)[C@]1(C)CC2,> 30
6,CNC(=O)[C@@H]1CC[C@]2(C(=O)OC)CC[C@]3(C)[C@H](CC[C@@H]4[C@@]5(C)CC[C@H](OC(C)=O)C(C)(C)[C@@H]5CC[C@]43C)[C@@H]12,11.2
7,CC(=O)O[C@H]1CC[C@]2(C)[C@H]3CC[C@@H]4[C@H]5[C@H](C(C)=O)CC[C@]5(N=C=O)CC[C@@]4(C)[C@]3(C)CC[C@H]2C1(C)C,> 30
8,CN[C@@H]1C[C@H]2O[C@@](C)([C@@H]1OC)n1c3ccccc3c3c4c(c5c6ccccc6n2c5c31)C(=O)NC4 [STAUROSPORINE],0.12

# Tested on: MCF7
# Test: Cytotoxicity against human MCF7 cells after 96 hrs by SRB assay
# Assay type: functional, cell-based
# Conditions: MCF7, 96 h
row,SMILES,EC50 [µM]
1,COC(=O)[C@]12CC[C@@H](C(C)=O)[C@@H]1[C@H]1CC[C@@H]3[C@@]4(C)CC[C@H](O)C(C)(C)[C@@H]4CC[C@@]3(C)[C@]1(C)CC2,> 30
2,CC(=O)[C@@H]1CC[C@]2(C(=O)OCc3ccccc3)CC[C@]3(C)[C@H](CC[C@@H]4[C@@]5(C)CC[C@H](O)C(C)(C)[C@@H]5CC[C@]43C)[C@@H]12,9
3,COC(=O)[C@]12CC[C@@H](NC(C)=O)[C@@H]1[C@H]1CC[C@@H]3[C@@]4(C)CC[C@H](OC(C)=O)C(C)(C)[C@@H]4CC[C@@]3(C)[C@]1(C)CC2,10
4,COC(=O)[C@]12CC[C@@H](NC(C)=O)[C@@H]1[C@H]1CC[C@@H]3[C@@]4(C)CC[C@H](O)C(C)(C)[C@@H]4CC[C@@]3(C)[C@]1(C)CC2,> 30
5,COC(=O)[C@]12CC[C@@H](C(C)=O)[C@@H]1[C@H]1CC[C@@H]3[C@@]4(C)CC[C@H](OC(C)=O)C(C)(C)[C@@H]4CC[C@@]3(C)[C@]1(C)CC2,> 30
6,CNC(=O)[C@@H]1CC[C@]2(C(=O)OC)CC[C@]3(C)[C@H](CC[C@@H]4[C@@]5(C)CC[C@H](OC(C)=O)C(C)(C)[C@@H]5CC[C@]43C)[C@@H]12,13.9
7,CC(=O)O[C@H]1CC[C@]2(C)[C@H]3CC[C@@H]4[C@H]5[C@H](C(C)=O)CC[C@]5(N=C=O)CC[C@@]4(C)[C@]3(C)CC[C@H]2C1(C)C,> 30

# Tested on: A549
# Test: Cytotoxicity against human A549 cells after 96 hrs by SRB assay
# Assay type: functional, cell-based
# Conditions: A549, 96 h
row,SMILES,EC50 [µM]
1,COC(=O)[C@]12CC[C@@H](C(C)=O)[C@@H]1[C@H]1CC[C@@H]3[C@@]4(C)CC[C@H](O)C(C)(C)[C@@H]4CC[C@@]3(C)[C@]1(C)CC2,> 30
2,CC(=O)[C@@H]1CC[C@]2(C(=O)OCc3ccccc3)CC[C@]3(C)[C@H](CC[C@@H]4[C@@]5(C)CC[C@H](O)C(C)(C)[C@@H]5CC[C@]43C)[C@@H]12,15.9
3,COC(=O)[C@]12CC[C@@H](NC(C)=O)[C@@H]1[C@H]1CC[C@@H]3[C@@]4(C)CC[C@H](OC(C)=O)C(C)(C)[C@@H]4CC[C@@]3(C)[C@]1(C)CC2,27.7
4,COC(=O)[C@]12CC[C@@H](NC(C)=O)[C@@H]1[C@H]1CC[C@@H]3[C@@]4(C)CC[C@H](O)C(C)(C)[C@@H]4CC[C@@]3(C)[C@]1(C)CC2,> 30
5,CNC(=O)[C@@H]1CC[C@]2(C(=O)OC)CC[C@]3(C)[C@H](CC[C@@H]4[C@@]5(C)CC[C@H](OC(C)=O)C(C)(C)[C@@H]5CC[C@]43C)[C@@H]12,> 30
6,CN[C@@H]1C[C@H]2O[C@@](C)([C@@H]1OC)n1c3ccccc3c3c4c(c5c6ccccc6n2c5c31)C(=O)NC4 [STAUROSPORINE],0.04

# Tested on: NIH3T3
# Test: Cytotoxicity against mouse NIH/3T3 cells after 96 hrs by SRB assay
# Assay type: cell-based
# Conditions: NIH3T3, 96 h
row,SMILES,EC50 [µM]
1,COC(=O)[C@]12CC[C@@H](C(C)=O)[C@@H]1[C@H]1CC[C@@H]3[C@@]4(C)CC[C@H](O)C(C)(C)[C@@H]4CC[C@@]3(C)[C@]1(C)CC2,> 30
2,CC(=O)[C@@H]1CC[C@]2(C(=O)OCc3ccccc3)CC[C@]3(C)[C@H](CC[C@@H]4[C@@]5(C)CC[C@H](O)C(C)(C)[C@@H]5CC[C@]43C)[C@@H]12,18.1
3,COC(=O)[C@]12CC[C@@H](NC(C)=O)[C@@H]1[C@H]1CC[C@@H]3[C@@]4(C)CC[C@H](OC(C)=O)C(C)(C)[C@@H]4CC[C@@]3(C)[C@]1(C)CC2,24.1
4,COC(=O)[C@]12CC[C@@H](NC(C)=O)[C@@H]1[C@H]1CC[C@@H]3[C@@]4(C)CC[C@H](O)C(C)(C)[C@@H]4CC[C@@]3(C)[C@]1(C)CC2,> 30
5,COC(=O)[C@]12CC[C@@H](C(C)=O)[C@@H]1[C@H]1CC[C@@H]3[C@@]4(C)CC[C@H](OC(C)=O)C(C)(C)[C@@H]4CC[C@@]3(C)[C@]1(C)CC2,> 30
6,CNC(=O)[C@@H]1CC[C@]2(C(=O)OC)CC[C@]3(C)[C@H](CC[C@@H]4[C@@]5(C)CC[C@H](OC(C)=O)C(C)(C)[C@@H]5CC[C@]43C)[C@@H]12,> 30
7,CC(=O)O[C@H]1CC[C@]2(C)[C@H]3CC[C@@H]4[C@H]5[C@H](C(C)=O)CC[C@]5(N=C=O)CC[C@@]4(C)[C@]3(C)CC[C@H]2C1(C)C,> 30
8,CN[C@@H]1C[C@H]2O[C@@](C)([C@@H]1OC)n1c3ccccc3c3c4c(c5c6ccccc6n2c5c31)C(=O)NC4 [STAUROSPORINE],0.008

# Tested on: HT-29
# Test: cells
# Conditions: Homo sapiens, HT-29, 96 h
# Description: Cytotoxicity against human HT-29 cells after 96 hrs by SRB assay
row,SMILES,EC50 [µM]
1,COC(=O)[C@]12CC[C@@H](C(C)=O)[C@@H]1[C@H]1CC[C@@H]3[C@@]4(C)CC[C@H](OC(C)=O)C(C)(C)[C@@H]4CC[C@@]3(C)[C@]1(C)CC2,> 30
2,CNC(=O)[C@@H]1CC[C@]2(C(=O)OC)CC[C@]3(C)[C@H](CC[C@@H]4[C@@]5(C)CC[C@H](OC(C)=O)C(C)(C)[C@@H]5CC[C@]43C)[C@@H]12,> 30
3,CC(=O)O[C@H]1CC[C@]2(C)[C@H]3CC[C@@H]4[C@H]5[C@H](C(C)=O)CC[C@]5(N=C=O)CC[C@@]4(C)[C@]3(C)CC[C@H]2C1(C)C,> 30
4,CN[C@@H]1C[C@H]2O[C@@](C)([C@@H]1OC)n1c3ccccc3c3c4c(c5c6ccccc6n2c5c31)C(=O)NC4 [STAUROSPORINE],0.15

# Continued, values first:
row,EC50 [µM],SMILES
1,> 30,COC(=O)[C@]12CC[C@@H](C(C)=O)[C@@H]1[C@H]1CC[C@@H]3[C@@]4(C)CC[C@H](O)C(C)(C)[C@@H]4CC[C@@]3(C)[C@]1(C)CC2
2,10.1,CC(=O)[C@@H]1CC[C@]2(C(=O)OCc3ccccc3)CC[C@]3(C)[C@H](CC[C@@H]4[C@@]5(C)CC[C@H](O)C(C)(C)[C@@H]5CC[C@]43C)[C@@H]12
3,> 30,COC(=O)[C@]12CC[C@@H](NC(C)=O)[C@@H]1[C@H]1CC[C@@H]3[C@@]4(C)CC[C@H](OC(C)=O)C(C)(C)[C@@H]4CC[C@@]3(C)[C@]1(C)CC2
4,> 30,COC(=O)[C@]12CC[C@@H](NC(C)=O)[C@@H]1[C@H]1CC[C@@H]3[C@@]4(C)CC[C@H](O)C(C)(C)[C@@H]4CC[C@@]3(C)[C@]1(C)CC2
